Patent US20240043439A1, “COMPOUNDS AS C5AR INHIBITORS” (Kira Pharmaceuticals (Suzhou) Ltd., priority 2020, published 2024)

molecular target: human C5a receptor (C5aR) (Homo sapiens (Human), UniProt P21730); assay: Inhibition of C5a-C5aR binding (biotinylated human C5a, U937/C5aR cells, FACS); details: not given
Experimental: U937 cells were originally obtained from the American Type Culture Collection (ATCC) and transfected with human C5a receptor (C5aR). U937/C5aR cells were cultured at 37° C., 5% CO2 in RPMI1640 (Gibco) supplemented with 10% FBS (Gibco) and 350 µg/ml Geneticin (Gibco) and passaged every 3 days to maintain the density range from […] to 2×10^6 cells/ml.
Human C5a biotinylation was performed according to the procedure provided by manufacturer (Thermo Scientific, A39257). 10 mM solution of Sulfo-NHS-LC-Biotin was prepared by adding 180μl ultrapure H2O to the 1 mg vial immediately. 12 μl 10 mM biotin reagent was added to […] human C5a solution, gently pipetted for 3 seconds, and incubated on ice for 2 hours. Amicon ultra-0.5 centrifuge filter device (Millipore, UFC5003BK) was pre-rinsed with Milli-Q H2O, centrifuged at 14000 g for 5 min immediately before use. Up to […] sample (diluted by PBS) was added to the device and capped. The device was spinned at 14000 g for approximately 5 min. 250 μl PBS was added to the filter device, spinned at 14000 g for 5 min, and repeatedly washed 6 times. The filter device was separated from the microcentrifuge tube and placed upside down in a clean microcentrifuge tube, spinned for 2 min at 1000 g to transfer the concentrated sample from the device to the tube.
U937/C5aR cells were collected and washed twice by PBS, cells were suspended in PBS+0.1% BSA buffer at the density of 3×10^6 cells/ml. 100 μl cell suspension was added to a 96 well microplate. 50 μl compound diluted in assay buffer and 50 μl biotinylated ligand human C5a (30 nM) were added to corresponding wells in order and the plate was incubated on ice for 120 min and then centrifuged at 1000 rpm for 3-5 min at 4° C. Supernatant was removed and cells were washed by pre-cold PBS twice. 100 μl FITC conjugated streptavidin was added to cells, incubated on ice for another 30 min, and then centrifuged at 1000 rpm for 3-5 min at 4° C. Supernatant was removed and cells were washed by pre-cold PBS twice. 150 μl PBS was added to suspend the cells and signals were detected by FACS (Beckman, Cytoflex).

human C5a receptor (C5aR), sequence (P21730 whole entry): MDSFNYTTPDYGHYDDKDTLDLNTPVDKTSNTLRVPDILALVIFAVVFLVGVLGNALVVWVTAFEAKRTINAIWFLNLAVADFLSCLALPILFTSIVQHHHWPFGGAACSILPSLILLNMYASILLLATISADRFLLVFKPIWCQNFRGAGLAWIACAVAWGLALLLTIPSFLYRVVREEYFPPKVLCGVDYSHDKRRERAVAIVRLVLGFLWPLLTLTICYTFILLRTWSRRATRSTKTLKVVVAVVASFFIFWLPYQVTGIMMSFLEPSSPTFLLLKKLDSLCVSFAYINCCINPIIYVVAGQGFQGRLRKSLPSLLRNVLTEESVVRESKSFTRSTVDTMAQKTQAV

| IC50 | SMILES |
| --- | --- |
| 2 to 5 µM | Cc1cccc(F)c1C(=O)N1C2COC[C@@H]2C[C@H](C(=O)Nc2ccc3c(cnn3C)c2)[C@@H]1c1ccc(NC2CCOCC2)cc1 (relative stereo) [Compound 134, cis-1-(2-fluoro-6-methylbenzoyl)-N-(1-methyl-1H-indazol-5-yl)-2-(4-((tetrahydro-2H-pyran-4-yl)amino)phenyl)octahydrofuro[3,4-b]pyridine-3-carboxamide] |
| < 0.05 µM | Cc1cccc(F)c1C(=O)N1[C@@H]2CCC[C@@H]2C[C@H](C(=O)Nc2ccc3[nH]ncc3c2)[C@@H]1c1ccc(NC2CCCC2)cc1 [Compound 84, (2R,3S,4aR,7aR)-2-(4-(cyclopentylamino)phenyl)-1-(2-fluoro-6-methylbenzoyl)-N-(1H-indazol-5-yl)octahydro-1H-cyclopenta[b]pyridine-3-carboxamide] |
| < 0.05 µM | Cc1ccc(NC(=O)C2CC(O)CN(C(=O)c3c(C)cccc3F)C2c2ccc(NC3CCCC3)cc2)cc1C(F)(F)F (centres unmarked) [Compound 42, 2-(4-(cyclopentylamino)phenyl)-1-(2-fluoro-6-methylbenzoyl)-5-hydroxy-N-(4-methyl-3-(trifluoromethyl)phenyl)piperidine-3-carboxamide] |
| 0.5 to 2 µM | Cc1cccc(F)c1C(=O)N1[C@@H]2CCC[C@@H]2C[C@H](C(=O)Nc2ccc3nn(C)cc3c2)[C@@H]1c1ccc(NC2CCOCC2)cc1 [Compound 97, (2R,3S,4aR,7aR)-1-(2-fluoro-6-methylbenzoyl)-N-(2-methyl-2H-indazol-5-yl)-2-(4-((tetrahydro-2H-pyran-4-yl)amino)phenyl)octahydro-1H-cyclopenta[b]pyridine-3-carboxamide] |
| 2 to 5 µM | Cc1cccc(F)c1C(=O)N1[C@@H]2CCC[C@@H]2C[C@H](C(=O)Nc2ccc3c(cnn3Cc3cccnc3)c2)[C@@H]1c1ccc(NC2CCOCC2)cc1 [Compound 107, (2R,3S,4aR,7aR)-1-(2-fluoro-6-methylbenzoyl)-N-(1-(pyridin-3-ylmethyl)-1H-indazol-5-yl)-2-(4-((tetrahydro-2H-pyran-4-yl)amino)phenyl)octahydro-1H-cyclopenta[b]pyridine-3-carboxamide] |
| 2 to 5 µM | Cc1cccc(F)c1C(=O)N1[C@@H]2CCC[C@@H]2C[C@H](C(=O)Nc2ccc3nn(CCO)cc3c2)[C@@H]1c1ccc(NC2CCOCC2)cc1 [Compound 104, (2R,3S,4aR,7aR)-1-(2-fluoro-6-methylbenzoyl)-N-(2-(2-hydroxyethyl)-2H-indazol-5-yl)-2-(4-((tetrahydro-2H-pyran-4-yl)amino)phenyl)octahydro-1H-cyclopenta[b]pyridine-3-carboxamide] |
| 0.05 to 0.5 µM | Cc1cccc(F)c1C(=O)N1[C@@H]2COC[C@@H]2C[C@H](C(=O)Nc2cnc3cnn(C)c3c2)[C@@H]1c1ccc(NC2CCCC2)cc1 [Compound 123, (2R,3S,4aR,7aS)-2-(4-(cyclopentylamino)phenyl)-1-(2-fluoro-6-methylbenzoyl)-N-(1-methyl-1H-pyrazolo[4,3-b]pyridin-6-yl)octahydrofuro[3,4-b]pyridine-3-carboxamide] |
| 2 to 5 µM | Cc1cccc(F)c1C(=O)N1[C@@H]2CCC[C@@H]2C[C@H](C(=O)Nc2ccc3c(cnn3C3COC3)c2)[C@@H]1c1ccc(NC2CCOCC2)cc1 [Compound 99, (2R,3S,4aR,7aR)-1-(2-fluoro-6-methylbenzoyl)-N-(1-(oxetan-3-yl)-1H-indazol-5-yl)-2-(4-((tetrahydro-2H-pyran-4-yl)amino)phenyl)octahydro-1H-cyclopenta[b]pyridine-3-carboxamide] |
| 2 to 5 µM | Cc1cccc(F)c1C(=O)N1[C@@H]2CCC[C@@H]2C[C@H](C(=O)Nc2ccc3c(cnn3CCO)c2)[C@@H]1c1ccc(NC2CCOCC2)cc1 [Compound 102, (2R,3S,4aR,7aR)-1-(2-fluoro-6-methylbenzoyl)-N-(1-(2-hydroxyethyl)-1H-indazol-5-yl)-2-(4-((tetrahydro-2H-pyran-4-yl)amino)phenyl)octahydro-1H-cyclopenta[b]pyridine-3-carboxamide] |
| 2 to 5 µM | Cc1cccc(F)c1C(=O)N1[C@@H]2COC[C@@H]2C[C@H](C(=O)Nc2ccc3c(cnn3C)c2)[C@@H]1c1ccc(CN2CCOCC2(C)C)cc1 [Compound 142, (2R,3S,4aR,7aS)-2-(4-((3,3-dimethylmorpholino)methyl)phenyl)-1-(2-fluoro-6-methylbenzoyl)-N-(1-methyl-1H-indazol-5-yl)octahydrofuro[3,4-b]pyridine-3-carboxamide] |
| 0.5 to 2 µM | Cc1cccc(F)c1C(=O)N1[C@@H]2CCC[C@@H]2C[C@H](C(=O)Nc2ccc3ncccc3c2)[C@@H]1c1ccc(NC2CCOCC2)cc1 [Compound 95, (2R,3S,4aR,7aR)-1-(2-fluoro-6-methylbenzoyl)-N-(quinolin-6-yl)-2-(4-((tetrahydro-2H-pyran-4-yl)amino)phenyl)octahydro-1H-cyclopenta[b]pyridine-3-carboxamide] |
| 2 to 5 µM | Cc1cccc(F)c1C(=O)N1[C@@H]2CCC[C@@H]2C[C@H](C(=O)Nc2ccc3nn(CCN(C)C)cc3c2)[C@@H]1c1ccc(NC2CCOCC2)cc1 [Compound 105, (2R,3S,4aR,7aR)-N-(2-(2-(dimethylamino)ethyl)-2H-indazol-5-yl)-1-(2-fluoro-6-methylbenzoyl)-2-(4-((tetrahydro-2H-pyran-4-yl)amino)phenyl)octahydro-1H-cyclopenta[b]pyridine-3-carboxamide] |

molecular target: C5aR (Homo sapiens (Human), UniProt P21730); assay: Calcium mobilization (U937/C5aR or HEK293/C5aR cells, FLIPR); type: cell-based; details: agonist human C5a at EC80, FLIPR
Sequence (P21730 whole entry): as above
Experimental: U937/C5aR cells or HEK293/C5aR cells were washed by PBS and suspended in growth media at the density of 1×10^6 cells/ml. […] to the 384-well plate and culture for overnight. Transfer 250 nl compound solution to the cell plate using Echo, incubate for 60 min. Cells were added with Fluo-4 Direct™ dye and incubate for 50 min at 37° C. 5% CO2 and 10 m at room temperature. Place the cell plate into […] (Molecular Devices). Transfer 10 μl of 5-fold EC80 concentrations of agonist human C5a to the cell plates.

| IC50 | SMILES |
| --- | --- |
| > 10 µM | Cc1ccc(NC(=O)[C@H]2C[C@H]3CCC[C@H]3N(C(=O)c3cnn(C)c3)C2c2ccc(NC3CCCC3)cc2)cc1C(F)(F)F (relative stereo) [Compound 112, cis-2-(4-(cyclopentylamino)phenyl)-1-(1-methyl-1H-pyrazole-4-carbonyl)-N-(4-methyl-3-(trifluoromethyl)phenyl)octahydro-1H-cyclopenta[b]pyridine-3-carboxamide] |
| 2 to 10 µM | Cc1ccc(NC(=O)[C@H]2CCCN(c3nccc4nccnc34)[C@H]2c2ccc(N(C(=O)OCc3ccccc3)C3CCCC3)cc2)cc1C(F)(F)F [Compound 165, benzyl cyclopentyl(4-((2R,3S)-3-((4-methyl-3-(trifluoromethyl)phenyl)carbamoyl)-1-(pyrido[3,4-b]pyrazin-5-yl)piperidin-2-yl)phenyl)carbamate] |
| 2 to 10 µM | Cc1cccc(F)c1C(=O)N1[C@@H]2CCC[C@@H]2C[C@H](C(=O)NC2CCN(C)CC2)[C@@H]1c1ccc(NC2CCCC2)cc1 [Compound 53, (2R,3S,4aR,7aR)-2-(4-(cyclopentylamino)phenyl)-1-(2-fluoro-6-methylbenzoyl)-N-(1-methylpiperidin-4-yl)octahydro-1H-cyclopenta[b]pyridine-3-carboxamide] |
| 2 to 10 µM | COC(=O)c1ccccc1S(=O)(=O)N1CCC[C@H](C(=O)Nc2ccc(C)c(C(F)(F)F)c2)[C@@H]1c1ccc(NC2CCCC2)cc1 [Compound 31, methyl 2-(((2R,3S)-2-(4-(cyclopentylamino)phenyl)-3-((4-methyl-3-(trifluoromethyl)phenyl)carbamoyl)piperidin-1-yl)sulfonyl)benzoate] |
| 2 to 10 µM | Cc1ccc(CNC(=O)[C@H]2C[C@H]3CCC[C@H]3N(C(=O)c3c(C)cccc3F)[C@H]2c2ccc(NC3CCCC3)cc2)cc1C(F)(F)F [Compound 185, (2R,3S,4aR,7aR)-2-(4-(cyclopentylamino)phenyl)-1-(2-fluoro-6-methylbenzoyl)-N-(4-methyl-3-(trifluoromethyl)benzyl)octahydro-1H-cyclopenta[b]pyridine-3-carboxamide] |
